The text below walks through data of patent US20210130339A1, “COMPOUNDS” (GLAXOSMITHKLINE INTELLECTUAL PROPERTY DEVELOPMENT LIMITED, priority 2017, published 2021).

Several values for one entry are separate records, joined by “and”; a condition that tells them apart may be missing. Equal values may be shown once.

T1 sequence (Q5S007 whole entry): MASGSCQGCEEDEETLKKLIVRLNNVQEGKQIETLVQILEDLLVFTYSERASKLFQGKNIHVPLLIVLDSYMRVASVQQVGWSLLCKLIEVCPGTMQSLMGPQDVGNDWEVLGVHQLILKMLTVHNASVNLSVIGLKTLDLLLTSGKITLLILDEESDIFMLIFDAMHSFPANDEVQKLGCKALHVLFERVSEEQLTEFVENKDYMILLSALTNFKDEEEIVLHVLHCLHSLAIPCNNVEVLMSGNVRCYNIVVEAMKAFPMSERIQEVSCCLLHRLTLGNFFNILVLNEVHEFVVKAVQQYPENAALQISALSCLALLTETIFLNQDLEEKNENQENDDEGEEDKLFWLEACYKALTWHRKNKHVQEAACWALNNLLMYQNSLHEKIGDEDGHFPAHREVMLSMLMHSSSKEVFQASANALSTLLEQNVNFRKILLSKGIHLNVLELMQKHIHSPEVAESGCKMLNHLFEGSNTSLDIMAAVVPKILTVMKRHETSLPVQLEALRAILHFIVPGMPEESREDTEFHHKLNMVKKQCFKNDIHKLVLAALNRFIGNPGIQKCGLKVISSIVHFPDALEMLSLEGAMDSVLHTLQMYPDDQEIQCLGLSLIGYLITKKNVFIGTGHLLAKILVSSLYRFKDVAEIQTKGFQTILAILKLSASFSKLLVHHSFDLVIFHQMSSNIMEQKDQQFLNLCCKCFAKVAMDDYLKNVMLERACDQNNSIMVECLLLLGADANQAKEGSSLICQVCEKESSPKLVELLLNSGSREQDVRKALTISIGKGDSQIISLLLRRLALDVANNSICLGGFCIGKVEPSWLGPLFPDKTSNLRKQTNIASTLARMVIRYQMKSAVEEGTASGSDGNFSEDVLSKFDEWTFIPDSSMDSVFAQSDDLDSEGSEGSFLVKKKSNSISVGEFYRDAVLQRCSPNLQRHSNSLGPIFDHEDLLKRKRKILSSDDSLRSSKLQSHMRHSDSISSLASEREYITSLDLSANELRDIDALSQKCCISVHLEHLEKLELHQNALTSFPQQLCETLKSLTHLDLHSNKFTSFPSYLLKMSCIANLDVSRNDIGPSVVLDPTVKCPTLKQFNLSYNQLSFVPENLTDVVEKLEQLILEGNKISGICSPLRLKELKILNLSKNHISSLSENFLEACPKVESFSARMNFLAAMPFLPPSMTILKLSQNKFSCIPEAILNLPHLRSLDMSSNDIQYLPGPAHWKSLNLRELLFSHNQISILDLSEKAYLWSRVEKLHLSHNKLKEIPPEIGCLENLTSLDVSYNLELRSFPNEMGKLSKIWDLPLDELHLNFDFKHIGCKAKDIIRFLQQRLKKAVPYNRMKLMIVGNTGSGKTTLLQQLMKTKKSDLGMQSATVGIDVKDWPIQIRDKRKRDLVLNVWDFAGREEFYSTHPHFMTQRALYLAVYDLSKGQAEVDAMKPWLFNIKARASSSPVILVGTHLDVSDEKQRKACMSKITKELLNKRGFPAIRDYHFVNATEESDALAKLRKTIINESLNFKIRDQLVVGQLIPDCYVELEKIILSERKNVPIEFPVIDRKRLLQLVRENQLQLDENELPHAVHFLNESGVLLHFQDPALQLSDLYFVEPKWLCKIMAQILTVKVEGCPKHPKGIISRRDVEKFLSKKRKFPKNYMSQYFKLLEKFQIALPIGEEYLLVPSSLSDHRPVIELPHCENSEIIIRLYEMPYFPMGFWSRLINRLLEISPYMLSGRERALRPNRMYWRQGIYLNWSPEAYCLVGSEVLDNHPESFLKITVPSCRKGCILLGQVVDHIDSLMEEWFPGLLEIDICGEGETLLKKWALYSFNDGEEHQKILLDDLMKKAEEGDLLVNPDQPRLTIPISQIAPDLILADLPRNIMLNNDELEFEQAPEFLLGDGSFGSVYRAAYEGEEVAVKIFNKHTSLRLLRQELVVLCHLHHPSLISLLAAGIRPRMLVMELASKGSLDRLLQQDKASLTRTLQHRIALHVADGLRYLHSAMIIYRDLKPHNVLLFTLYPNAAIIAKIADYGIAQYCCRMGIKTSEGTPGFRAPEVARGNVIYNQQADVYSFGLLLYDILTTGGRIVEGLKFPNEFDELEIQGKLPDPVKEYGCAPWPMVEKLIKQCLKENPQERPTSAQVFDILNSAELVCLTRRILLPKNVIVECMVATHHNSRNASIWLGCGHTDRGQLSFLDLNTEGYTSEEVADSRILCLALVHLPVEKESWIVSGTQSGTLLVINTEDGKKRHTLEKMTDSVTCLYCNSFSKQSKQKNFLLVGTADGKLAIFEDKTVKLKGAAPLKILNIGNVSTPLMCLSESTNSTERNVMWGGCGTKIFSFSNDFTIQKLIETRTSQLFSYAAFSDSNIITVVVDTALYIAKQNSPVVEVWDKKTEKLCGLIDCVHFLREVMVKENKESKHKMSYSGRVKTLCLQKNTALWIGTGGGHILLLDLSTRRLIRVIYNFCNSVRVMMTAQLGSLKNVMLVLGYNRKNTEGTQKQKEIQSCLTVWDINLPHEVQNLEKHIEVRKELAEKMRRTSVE

The experiment concerns the target T1, recombinant full length LRRK2 (Homo sapiens, UniProt Q5S007).
T1 construct: A BacMam virus expressing full length recombinant LRRK2 was purchased from Invitrogen; host or cells: SH-SY5Y human neuroblastoma cells transduced with BacMam LRRK2 virus (MOI 50)
Briefly: Recombinant cellular LRRK2 AlphaScreen assay. The class given is cell-based. To be noted: LRRK2 Ser935 phosphorylation, SH-SY5Y cells over-expressing recombinant full length LRRK2; read-out: pIC50 in the recombinant cellular LRRK2 AlphaScreen assay (converted). From the text:
b. Recombinant Cellular LRRK2 AlphaScreen Assay
To determine the activity of compounds against LRRK2 kinase activity in cells, the observed LRRK2 kinase-dependent modulation of LRRK2 Ser 935 phosphorylation (Dzamko et al., 2010, Biochem. J. 430: 405-413) was utilized to develop a quantitative 384 well plate-based immunoassay of LRRK2 Ser935 phosphorylation in the human neuroblastoma cell line SH-SY5Y, engineered to over-express recombinant full length LRRK2 protein. A BacMam virus expressing full length recombinant LRRK2 was purchased from Invitrogen and amplified by inoculation of SF-9 cells at MOI 0.3 for 4-5 days in Sf-900 III SFM medium supplemented with 3% fetal bovine serum. Infected cell cultures were then centrifuged at 2000 g for 20 minutes, viral supernatant titer determined by anti-gp64 plaque assay and stored at 4° C. Affinity-purified anti-phospho LRRK2 Ser935 sheep polyclonal antibody (Dzamko et al., 2010, Biochem. J. 430: 405-413) was biotinylated by standard methods (PerkinElmer). Anti-LRRK2 rabbit polyclonal antibody was purchased from Novus Biologicals. AlphaScreen Protein A IgG Kit (including acceptor and donor beads) was purchased from Perkin Elmer. SH-SY5Y cells were grown in DMEM/F12 medium with 10% dialysed fetal bovine serum and harvested by treatment with 0.5% trypsin-EDTA for 5 minutes at 37° C. followed by centrifugation at 1000 rpm for 4 minutes. The cell pellet was resuspended in Opti-MEM reduced serum media (Invitrogen) at 200,000 cells/ml and mixed with the BacMam LRRK2 virus at MOI=50. 50 μl cell solutions were then dispensed to each well of a 384-well plate and incubated at 37° C., 5% CO2 for 24 hours. Serial dilutions of test compounds were prepared in Opti-MEM reduced serum media (Invitrogen) and 5.6 ul transferred from compound plate to cell assay plate to achieve a top final assay concentration of 10 uM. DMSO was used in certain wells as controls. Cells were incubated at 37° C., 5% CO2 for 60 minutes. The medium was then removed and cells lysed by addition of 20 ul cell lysis buffer (Cell Signaling Technology) and incubation at 4° C. for 20 minutes. 10 ul of antibody/acceptor bead mix [(1/1000 biotinylated-pS935 LRRK2 antibody, 1/1000 total-LRRK2 antibody, 1/100 Acceptor beads in AlphaScreen detection buffer (25 mM Hepes (pH 7.4), 0.5% Triton X-100, 1 mg/ml Dextran 500 and 0.1% BSA)] was then added to each well and plates incubated for 2 hours at ambient temperature in the dark. 10 μl of donor beads solution (1/33.3 donor beads in AlphaScreen detection buffer) was then added to each well. Following incubation for a further 2 hours at ambient temperature in the dark, plates were read on an EnVision™ plate reader at emission 520-620 nm with excitation 680 nm. Dose response curve data was based on sigmoidal dose-response model.
Background: In Alpha technology, singlet oxygen from a donor bead excites a nearby acceptor bead.
For `COc1nc(N2CC(O)C2)cc(-n2ncc3cc(C)c(C4CCN(C5CCOC5)CC4F)cc32)n1` (single isomer, unassigned) [Example E5, cis-1-(6-(6-(3-Fluoro-1-(tetrahydrofuran-3-yl)piperidin-4-yl)-5-methyl-1H-indazol-1-yl)-2-methoxypyrimidin-4-yl)azetidin-3-ol], the IC50 is ≤ 10 nM and 5.01 nM.
To `COc1nc(N2CC(C)(O)C2)cc(-n2ncc3cc(C)c(C4CCN(C5CCOC5)CC4)cc32)n1` (single isomer, unassigned) [Example E11, 1-(2-Methoxy-6-(5-methyl-6-(1-(tetrahydrofuran-3-yl)piperidin-4-yl)-1H-indazol-1-yl)pyrimidin-4-yl)-3-methylazetidin-3-ol] belongs ≤ 100 nM.
In the case of `COc1nc(N2CC[C@H](O)C2)cc(-n2ncc3cc(C)c(C4CCN(C5CCOC5)CC4)cc32)n1` (single isomer, unassigned) [Example E17] it was ≤ 100 nM; in that of `COc1nc(N2CC[C@@H](O)C2)cc(-n2ncc3cc(C)c(C4CCN(C5CCOC5)CC4)cc32)n1` (single isomer, unassigned) [Example E19], ≤ 100 nM.
Regarding `COc1nc(N2CCOC(C(C)O)C2)cc(-n2ncc3cc(C)c(C4CCN(C5CCOC5)CC4)cc32)n1` (single isomer, unassigned) [Example E21, 1-(4-(2-Methoxy-6-(5-methyl-6-(1-(tetrahydrofuran-3-yl)piperidin-4-yl)-1H-indazol-1-yl)pyrimidin-4-yl)morpholin-2-yl)ethanol], the IC50 is ≤ 100 nM.
To `Cc1nc(N2CCO[C@H](CO)C2)cc(-n2ncc3cc(Cl)c(C4CCN(C5CCOC5)CC4)cc32)n1` (single isomer, unassigned) [Example E25] belongs ≤ 100 nM.
To `COc1nc(N2CC(O)C2)cc(-n2ncc3cc(Cl)c(C4CCN(C5CCOC5)CC4)cc32)n1` (single isomer, unassigned) [Example E29, 1-(6-(5-Chloro-6-(1-(tetrahydrofuran-3-yl)piperidin-4-yl)-1H-indazol-1-yl)-2-methoxy-pyrimidin-4-yl)azetidin-3-ol] belongs ≤ 10 nM; to `[2H]C1(N2CCC(c3cc4c(cnn4-c4cc(N5CCO[C@@H](CO)C5)nc(C)n4)cc3C)CC2)CCOC1` (single isomer, unassigned) [Example E35], 200 nM.
To `[2H]C1(N2CCC(c3cc4c(cnn4-c4cc(N5CCO[C@@H](CO)C5)nc(C)n4)cc3C)CC2)CCOC1` (single isomer, unassigned) [Example E36] belongs 158 nM; to `Cc1nc(N2CC(CC(C)O)C2)cc(-n2ncc3cc(Cl)c(C4CCN(C5CCOC5)CC4)cc32)n1` (single isomer, unassigned) [Example E44, 1-(1-(6-(5-Chloro-6-(1-(tetrahydrofuran-3-yl)piperidin-4-yl)-1H-indazol-1-yl)-2-methylpyr-imidin-4-yl)azetidin-3-yl)propan-2-ol], ≤ 100 nM.
With `COc1nc(N2CCNC(=O)C2)cc(-n2ncc3cc(C)c(C4CCN(C5CCOC5)CC4F)cc32)n1` (single isomer, unassigned) [Example E53, 4-(6-(6-(3-Fluoro-1-(tetrahydrofuran-3-yl)piperidin-4-yl)-5-methyl-1H-indazo-1-yl)-2-methoxypyrimidin-4-yl)piperazin-2-one], the IC50 was ≤ 10 nM.
As to `Cc1nc(N2CC(C)OC(CO)C2)cc(-n2ncc3cc(C)c(C4CCN(C5CCOC5)CC4)cc32)n1` (single isomer, unassigned) [Example E60, (6-Methyl-4-(2-methyl-6-(5-methyl-6-(1-(tetrahydrofuran-3-yl)piperidin-4-yl)-1H-indazol-1-yl)pyrimidin-4-yl)morpholin-2-yl)methanol], the IC50 is ≤ 100 nM.
Turning to `COc1nc(N2CC(C(C)O)C2)cc(-n2ncc3cc(C)c(C4CCN(C5CCOC5)CC4)cc32)n1` (single isomer, unassigned) [Example E97, 1-(1-(2-methoxy-6-(5-methyl-6-(1-(tetrahydrofuran-3-yl)piperidin-4-yl)-1H-indazol-1-yl)pyrimidin-4-yl)azetidin-3-yl)ethanol], the IC50 was ≤ 100 nM.
For the compound `COc1nc(N2CC(C(C)O)C2)cc(-n2ncc3cc(C)c(C4CCN(C5CCOC5)CC4)cc32)n1` (single isomer, unassigned) [Example E98, 1-(1-(2-methoxy-6-(5-methyl-6-(1-(tetrahydrofuran-3-yl)piperidin-4-yl)-1H-indazol-1-yl)pyrimidin-4-yl)azetidin-3-yl)ethanol], the IC50 was ≤ 100 nM.
Consider `COc1nc(N2CC(C(C)O)C2)cc(-n2ncc3cc(C)c(C4CCN(C5CCOC5)CC4)cc32)n1` (single isomer, unassigned) [Example E99, 1-(1-(2-methoxy-6-(5-methyl-6-(1-(tetrahydrofuran-3-yl)piperidin-4-yl)-1H-indazol-1-yl)pyrimidin-4-yl)azetidin-3-yl)ethanol], for which the IC50 is ≤ 1000 nM.
With `COc1nc(N2CC(C(C)O)C2)cc(-n2ncc3cc(C)c(C4CCN(C5CCOC5)CC4)cc32)n1` (single isomer, unassigned) [Example E100, 1-(1-(2-methoxy-6-(5-methyl-6-(1-(tetrahydrofuran-3-yl)piperidin-4-yl)-1H-indazol-1-yl)pyrimidin-4-yl)azetidin-3-yl)ethanol], the IC50 is ≤ 1000 nM.
To `Cc1nc(N2CCO[C@@H](CO)C2)cc(-n2ncc3cc(C)c(C4CCN(C5CCOC5)CC4F)cc32)n1` (single isomer, unassigned) [Example E101] belongs ≤ 100 nM; to `Cc1nc(N2CCO[C@H](CO)C2)cc(-n2ncc3cc(C)c(C4CCN(C5CCOC5)CC4F)cc32)n1` (single isomer, unassigned) [Example E103], ≤ 100 nM; to `Cc1nc(N2CCO[C@H](CO)C2)cc(-n2ncc3cc(C)c(C4CCN(C5CCOC5)CC4F)cc32)n1` (single isomer, unassigned) [Example E104], ≤ 100 nM.
In the case of `Cc1nc(N2CCO[C@H](CO)C2)cc(-n2ncc3cc(C)c(C4CCN(C5CCOC5)CC4F)cc32)n1` (single isomer, unassigned) [Example E105] it was ≤ 100 nM; in that of `COc1nc(N2CCO[C@H](CO)C2)cc(-n2ncc3cc(C)c(C4CCN(C5CCOC5)CC4F)cc32)n1` (single isomer, unassigned) [Example E121], ≤ 10 nM.
Turning to `COc1nc(N2CCO[C@H](CO)C2)cc(-n2ncc3cc(C)c(C4CCN(C5CCOC5)CC4F)cc32)n1` (single isomer, unassigned) [Example E122], the IC50 is ≤ 10 nM.
In the case of `COc1nc(N2CCO[C@H](CO)C2)cc(-n2ncc3cc(C)c(C4CCN(C5CCOC5)CC4F)cc32)n1` (single isomer, unassigned) [Example E123] it was ≤ 10 nM.
As to `Cc1nc(N2CCO[C@@H](CO)C2)cc(-n2ncc3cc(Cl)c(C4CCN(C5CCOC5)CC4)cc32)n1` (single isomer, unassigned) [Example E129], the IC50 is ≤ 1000 nM.
Take `Cc1nc(N[C@H]2C[C@H](O)C2)cc(-n2ncc3cc(C)c(C4CCN(C5CCOC5)CC4)cc32)n1` (single isomer, unassigned) [Example E132, trans-3-((2-methyl-6-(5-methyl-6-(1-(tetrahydrofuran-3-yl)piperidin-4-yl)-1H-indaz-ol-1-yl)pyrimidin-4-yl)amino)cyclobutanol]: the IC50 was ≤ 1000 nM.
